Laboratory results: the supplement of paper PMC13380429

Key:
Conditions in all cases: 72 h
Vero E6 [1] = assay: cell viability relative to DMSO; higher = less toxic
U2OS [2] = assay: as above
Caco-2 [3] = assay: as above
HepG2 [4] = assay: as above
Vero E6 [5] = assay: drug sensitivity score (DSS) for viability; higher = more toxic; extreme values may be limits of the assay
U2OS [6] = assay: as above
Caco-2 [7] = assay: as above
HepG2 [8] = assay: as above
Vero E6 [9] = assay: relative viability EC50 (midpoint between 100% and the lowest measured viability); higher = less toxic
U2OS [10] = assay: as above
Caco-2 [11] = assay: as above
HepG2 [12] = assay: as above
Calu-3 [13] = assay: cell viability relative to DMSO; higher = less toxic
Calu-3 [14] = assay: drug sensitivity score (DSS) for viability; higher = more toxic; extreme values may be limits of the assay
Calu-3 [15] = assay: relative viability EC50 (midpoint between 100% and the lowest measured viability); higher = less toxic

| SMILES | cell viability (Vero E6 [1]; 1 nM) [%] | cell viability (Vero E6 [1]; 10 nM) [%] | cell viability (Vero E6 [1]; 100 nM) [%] | cell viability (Vero E6 [1]; 1000 nM) [%] | cell viability (Vero E6 [1]; 10000 nM) [%] | cell viability (U2OS [2]; 1 nM) [%] | cell viability (U2OS [2]; 10 nM) [%] | cell viability (U2OS [2]; 100 nM) [%] | cell viability (U2OS [2]; 1000 nM) [%] | cell viability (U2OS [2]; 10000 nM) [%] | cell viability (Caco-2 [3]; 1 nM) [%] | cell viability (Caco-2 [3]; 10 nM) [%] | cell viability (Caco-2 [3]; 100 nM) [%] | cell viability (Caco-2 [3]; 1000 nM) [%] | cell viability (Caco-2 [3]; 10000 nM) [%] | cell viability (HepG2 [4]; 1 nM) [%] | cell viability (HepG2 [4]; 10 nM) [%] | cell viability (HepG2 [4]; 100 nM) [%] | cell viability (HepG2 [4]; 1000 nM) [%] | cell viability (HepG2 [4]; 10000 nM) [%] | drug sensitivity score (Vero E6 [5]) | drug sensitivity score (U2OS [6]) | drug sensitivity score (Caco-2 [7]) | drug sensitivity score (HepG2 [8]) | relative viability EC50 (Vero E6 [9]) [µM] | relative viability EC50 (U2OS [10]) [µM] | relative viability EC50 (Caco-2 [11]) [µM] | relative viability EC50 (HepG2 [12]) [µM] | cell viability (Calu-3 [13]; 1 nM) [%] | cell viability (Calu-3 [13]; 10 nM) [%] | cell viability (Calu-3 [13]; 100 nM) [%] | cell viability (Calu-3 [13]; 1000 nM) [%] | cell viability (Calu-3 [13]; 10000 nM) [%] | drug sensitivity score (Calu-3 [14]) | relative viability EC50 (Calu-3 [15]) [µM] |
| --- | --- | --- | --- | --- | --- | --- | --- | --- | --- | --- | --- | --- | --- | --- | --- | --- | --- | --- | --- | --- | --- | --- | --- | --- | --- | --- | --- | --- | --- | --- | --- | --- | --- | --- | --- |
| CC(C)c1ccccc1S(=O)(=O)c1cc(N)c2ncccc2c1[N+](=O)[O-] | 98 | 103 | 107 | 102 | 100 | 99.7 | 102 | 96.3 | 98.5 | 93.7 | 98.7 | 102 | 99.1 | 97.3 | 89.8 | 100 | 95.8 | 100 | 89.9 | 110 | 0 | 0 | 0 | 0 | > 10 | > 10 | > 10 | > 10 |  |  |  |  |  |  |  |
| CCn1cc(-c2ccnc3[nH]c(-c4cccc(CN(C)C)c4)cc23)c(-c2ccc(NC(=O)N(C)C)cc2)n1 | 103 | 104 | 98.5 | 82 | 63.5 |  |  |  |  |  | 96.3 | 95.7 | 98 | 93.1 | 56.2 | 106 | 105 | 77.8 | 72.3 | 20.1 | 3.8 |  | 3.4 | 8.1 |  |  |  | 1.19 | 97.8 | 110 | 81.9 | 97.7 | 81.9 | 0.6 | > 10 |
| COc1cc2ncn(-c3cc(OCc4ccccc4C(F)(F)F)c(C(N)=O)s3)c2cc1OC | 104 | 96 | 98.8 | 69.1 | 57.5 | 102 | 97.8 | 102 | 94.4 | 89.4 | 102 | 95.5 | 102 | 73.4 | 62.3 | 95.6 | 108 | 105 | 50 | 26.5 | 5.9 | 0.1 | 4.9 | 9.9 |  | > 10 |  | 0.743 | 95.9 | 101 | 95.4 | 90 | 86.1 | 0.5 | > 10 |
| C[C@@H](N)c1ccc(C(=O)Nc2ccnc3[nH]ccc23)cc1 | 99.1 | 98.5 | 96.6 | 93 | 86.5 | 99.3 | 96.8 | 99 | 98.2 | 75 | 95.8 | 101 | 110 | 105 | 91.6 | 93.7 | 94.4 | 105 | 89.8 | 68.4 | 0.2 | 1.2 | 0 | 2.8 | > 10 |  | > 10 |  |  |  |  |  |  |  |  |
| Cc1c(Cn2c(C)nc3c(C(=O)O)cc(N4CCOCC4)cc32)cccc1C(F)(F)F | 97.2 | 101 | 93.1 | 84.4 | 58.9 | 95.7 | 104 | 96.2 | 99 | 91.3 | 102 | 97.3 | 91.2 | 93.1 | 84.9 |  |  |  |  |  | 3.6 | 0 | 0.5 |  |  | > 10 | > 10 |  | 110 | 101 | 97 | 94.4 | 86 | 0.2 | > 10 |
| O=C1NCCc2[nH]c(-c3ccncc3)cc21 | 98 | 98.2 | 98.1 | 85.7 | 13.5 | 95.2 | 104 | 93.6 | 95.3 | 5.8 | 96.1 | 93.6 | 94.2 | 94.9 | 38.5 | 91.4 | 102 | 92.4 | 33.1 | 9.5 | 7.2 | 5.9 | 4.2 | 13.6 | 1.9 | 2.77 | 2.48 | 0.499 | 94 | 94.6 | 94.6 | 79.5 | 53.6 | 4.6 |  |
| c1ccc(C[C@H](c2ccccc2)N2CCCCC2)cc1 (racemic) [1-(1,2-diphenylethyl)piperidine-(+/-)] | 92.6 | 97.7 | 92.2 | 97.1 | 102 | 104 | 93.8 | 98.7 | 98.9 | 105 | 91.2 | 93.9 | 101 | 100 | 103 | 92.9 | 103 | 96.5 | 100 | 86.8 | 0 | 0 | 0 | 0.1 | > 10 | > 10 | > 10 | > 10 |  |  |  |  |  |  |  |
| O=[N+]([O-])c1ccc(O)c([N+](=O)[O-])c1 [2,4-dinitrophenol] | 94 | 103 | 100 | 92.9 | 99.1 | 96.2 | 102 | 106 | 105 | 97 | 89.3 | 96.8 | 82.7 | 98.8 | 73.4 | 100 | 89.5 | 110 | 106 | 103 | 0 | 0 | 1.8 | 0 | > 10 | > 10 |  | > 10 |  |  |  |  |  |  |  |
